This is an account of results in article PMC8199216 (International Journal of Molecular Sciences, 2021).

Where “and” joins values, the source holds several entries; their conditions need not be identical. Equal entries are not always repeated. Some results are limits rather than exact numbers.

For orientation: IC50 means the concentration that inhibits the measured activity by half.

One assay has as its target T1, GLP (982–1266) (Homo sapiens, UniProt Q9H9B1).
T1 construct: GLP (982–1266) were cloned, expressed, and purified; made in house
T1 sequence (Q9H9B1 982-1266): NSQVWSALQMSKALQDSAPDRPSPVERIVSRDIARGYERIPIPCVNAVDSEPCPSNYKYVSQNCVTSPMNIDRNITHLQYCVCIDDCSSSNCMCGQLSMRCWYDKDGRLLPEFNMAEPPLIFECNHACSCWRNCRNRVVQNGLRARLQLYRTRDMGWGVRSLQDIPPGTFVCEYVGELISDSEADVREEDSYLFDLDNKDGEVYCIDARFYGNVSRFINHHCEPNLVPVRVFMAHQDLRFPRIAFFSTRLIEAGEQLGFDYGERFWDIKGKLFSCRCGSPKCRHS
As to the kind of experiment: Coupled enzyme fluorescent histone methyltransferase assay (SAM-SAH conversion). It is filed as biochemical. To be noted: fluorescence based coupled enzyme assay. On the procedure:
(§1) Full length of S. solfataricus S-adenosylhomocysteine hydrolase (SAHH) was cloned, expressed, and purified using the published protocol.
(§2) The assay was performed using the previously published protocol. Tested compounds were pre-dissolved in assay buffer (20 mM HEPES pH 7.5, 50 mM NaCl, 0.01% Triton X-100, 3 mM MgCl2, 0.1 mg/mL BSA) with 5 μM of purified SAHH, 1 unit of ADA, 10 μM of H3, and 5 nM of either G9a or GLP as 30 μL in black 96-well plate. […] After incubation for 10 min at room temperature, thiol fluorescent probe IV (20 μM, 50 μL) was added.

The target of a further assay is T2, Human G9a (913–1193) (Homo sapiens, UniProt Q96KQ7).
T2 construct: Catalytic domains of Human G9a (913–1193); made in house
T2 sequence (Q96KQ7 913-1193): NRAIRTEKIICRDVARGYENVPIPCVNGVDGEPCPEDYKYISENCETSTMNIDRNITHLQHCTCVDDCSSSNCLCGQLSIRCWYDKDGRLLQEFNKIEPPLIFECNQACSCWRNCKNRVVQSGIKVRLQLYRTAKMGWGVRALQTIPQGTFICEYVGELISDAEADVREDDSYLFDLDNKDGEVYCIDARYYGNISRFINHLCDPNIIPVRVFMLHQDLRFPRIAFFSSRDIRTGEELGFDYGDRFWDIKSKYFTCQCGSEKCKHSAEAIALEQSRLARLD
Described as above. To be noted: fluorescence based coupled enzyme assay. Type of assay: biochemical. As to the method:
as §1, §2

In assay [1] the target is T3, His-Spindlin1(49–262) (Homo sapiens, UniProt Q9Y657). As to the kind of experiment: biochemical.
T3 sequence (Q9Y657 49-262): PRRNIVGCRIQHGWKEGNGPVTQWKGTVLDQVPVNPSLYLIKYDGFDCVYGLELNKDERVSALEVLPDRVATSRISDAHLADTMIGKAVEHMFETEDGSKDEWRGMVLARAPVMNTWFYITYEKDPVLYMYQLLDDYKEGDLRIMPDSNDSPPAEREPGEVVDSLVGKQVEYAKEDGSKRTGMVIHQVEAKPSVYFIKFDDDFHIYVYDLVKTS
Experimental: (§3) To investigate the influence of these modifications on the Spindlin1 inhibitory activity, the fluorescence polarization assay established earlier [31] was used to determine the potency of the compounds.
(§4) Fluorescence polarization assays were carried out as described before [31]. […] For the controls, a buffer solution with the same DMSO concentration as the inhibitor solutions was added to the plate instead of the inhibitor solution, the negative control contained the H3(1–14)K4me3-Fluorescein without Spindlin1. The blank control contained buffer solution with DMSO. Every inhibitor concentration and the controls were done in triplicates. Fluorescence polarization values (mP) were determined after blank correction as IS−G×IP/IS+G×IP×1000 , where G is a device-specific factor and IS and IP are the fluorescence intensities of the S and P plane, respectively. […] Curve fitting was carried out using GraphPad Prism 7, applying a non-linear sigmoidal fit with a variable slope.
Assay [2] addresses T3, His-Spindlin1(49–262). The settings on record: fluorescence polarization. (In general: Fluorescence polarisation rises when a labelled molecule tumbles more slowly, as on binding a larger partner.)
Experimental: as §3, §4
Where [3] appears, read: read-out: Spin1 inhibition in percentage at specified concentration.

Regarding `COc1cc2c(cc1OCCCN1CCC(O)C1)N=C(N)C21CCCC1` (stereo not shown), the IC50 result against Spindlin1 (Spin1) is reported as “(S): 478 ± 34”.

For the compound `COc1cc2c(cc1OCCCN1CCC(O)C1)N=C(N)C21CCCC1` (racemic), the figures for the half-inhibitory concentration (IC50) entry at Spindlin1 (Spin1), against G9a and on GLP were “(rac): 584 ± 31”, “(rac): 2321” and “(rac): 4432”, respectively.

With `COc1cc2c(cc1OCCCN1CCC(O)C1)N=C(N)C21CCCC1` (racemic) [1q (rac)], the IC50 on GLP (982–1266) came out at 4.43 µM; against Human G9a (913–1193), 2320 nM; at His-Spindlin1(49–262) [1], 584 nM.

Turning to `CCOc1c(OCCCN2CCCC2)cc2c(c1OCC)C1(CCCC1)C(N)=N2` [1a], the “% inhibition at 25 μM” value in the assay with Spindlin1 (Spin1) amounted to 70% @ 25 μM [d]. For the same compound, at His-Spindlin1(49–262) [2], the “Spindlin1 inhibitory activity (in words)” value is listed as “weakly active”. Further, at His-Spindlin1(49–262) [1] (setting [3]), the inhibition at 25 µM was determined as 70%.

On to `COc1cc2c(cc1OCCCN1CCC(=O)C1)N=C(N)C21CCCC1` [1b], for which, in the assay on Spindlin1 (Spin1), the “% inhibition at 100 μM” value came out at 81% @ 100 μM [d]. The “Spindlin1 inhibitory activity (in words)” value on His-Spindlin1(49–262) [2] is given as “weakly active”. Moreover, the inhibition at 100 µM at His-Spindlin1(49–262) [1] (setting [3]) turned out to be 81%.

On to `COc1cc2c(cc1OCCCCN1CCCC1)N=C(N)C21CCCCC1` [1c], for which the “% inhibition at 50 μM” value in the assay with Spindlin1 (Spin1) is 42% @ 50 μM [d]. The IC50 on G9a is over 20000 nM; on GLP, over 20 µM; on GLP (982–1266), over 20 µM; at Human G9a (913–1193), over 20000 nM. Further, at His-Spindlin1(49–262) [2], the “Spindlin1 inhibitory activity (in words)” value was “inactive”. Also, the inhibition at 50 µM on His-Spindlin1(49–262) [1] (setting [3]) worked out at 42%.

For the compound `COc1cc2c(cc1OCCN1CCCC1)N=C(N)C21CCCCC1` [1d], the “Spindlin1 inhibitory activity (in words)” value on His-Spindlin1(49–262) [2] is “Inactive”.

Consider `COc1cc2c(cc1OCCN1CCCC1)N=C(N)C21CCC1` [1e], for which the “Spindlin1 inhibitory activity (in words)” value at His-Spindlin1(49–262) [2] is on record as “Inactive”.

As to `COc1cc2c(cc1OCCCN1CCCC1)N=C(N)C21CCCC1` [1f], the IC50 at G9a was determined as 431 nM; at GLP it was 0.334 µM; on GLP (982–1266), 0.334 µM; against Human G9a (913–1193), 431 nM.

Consider `CCOc1cc2c(cc1OCCCN1CCCC1)N=C(N)C21CCCC1` [1g], for which the IC50 amounted to 243 nM on G9a, 2.97 µM at GLP, 2.97 µM at GLP (982–1266) and 243 nM against Human G9a (913–1193).

Turning to `COc1c(OCCCN2CCCC2)cc2c(c1C#N)C1(CCCC1)C(N)=N2` [1h], the figures for the IC50 against Spindlin1 (Spin1) and on His-Spindlin1(49–262) [1] were 3900 nM and 3900 ± 700 nM, respectively.

Take `COc1c(OCCCN2CCCC2)cc2c(c1Cl)C1(CCCC1)C(N)=N2` [1i]: the IC50 on Spindlin1 (Spin1) is 1600 nM; against G9a it was over 20000 nM; against GLP, over 20 µM; against GLP (982–1266) it was over 20 µM; against Human G9a (913–1193), over 20000 nM; against His-Spindlin1(49–262) [1] it was 1600 ± 200 nM.

In the case of `COc1c(OCCCN2CCCC2)cc2c(c1OC)C1(CCCC1)C(N)=N2` [1j], the IC50 on Spindlin1 (Spin1) came to 2500 nM; on His-Spindlin1(49–262) [1], 2500 ± 200 nM.

With `COc1c(OCCCN2CCCC2)cc2c(c1C(C)=O)C1(CCCC1)C(N)=N2` [1k], the values for the IC50 against Spindlin1 (Spin1) and against His-Spindlin1(49–262) [1] were 11800 ± 210 nM and 11800 nM, respectively.

In the case of `CCOc1cc2c(cc1OCCCN1CCCC1)N=C(N)C21CCCCC1` [1l], the IC50 against Spindlin1 (Spin1) turned out to be 567 nM; against His-Spindlin1(49–262) [1], 567 ± 35 nM.

For `CC(C)Oc1cc2c(cc1OCCCN1CCCC1)N=C(N)C21CCC1` [1m], the IC50 against Spindlin1 (Spin1) was 3300 nM; against His-Spindlin1(49–262) [1] it was 3300 ± 470 nM. Moreover, at His-Spindlin1(49–262) [2], the “Spindlin1 inhibitory activity (in words)” value was “micromolar range”.

For the compound `COc1cc2c(cc1OCCCN1CCCC1)N=C(N)C21CCCCC1` [1n], the IC50 is 255 nM on Spindlin1 (Spin1); 779 nM on G9a; 0.527 µM against GLP; 0.527 µM on GLP (982–1266); 779 nM on Human G9a (913–1193); 255 ± 35 nM against His-Spindlin1(49–262) [1].

`CCC1(CC)C(N)=Nc2cc(OCCCN3CCCC3)c(OC)cc21` [1o]: the IC50 on Spindlin1 (Spin1) was 1210 nM and 1210 ± 90 nM; at G9a, over 20000 nM; against GLP, over 20 µM; against GLP (982–1266), over 20 µM; at Human G9a (913–1193), over 20000 nM; against His-Spindlin1(49–262) [1], 1210 ± 90 nM.

Regarding `COc1cc2c(cc1OCCCN1CCCC1)N=C(N)C2(C)C` [1p], the concentration for half-maximal inhibition (IC50) was 157 nM against Spindlin1 (Spin1); 759 nM against G9a; 0.47 µM against GLP; 0.47 µM at GLP (982–1266); 759 nM at Human G9a (913–1193); 157 ± 12 nM against His-Spindlin1(49–262) [1].

For `COc1cc2c(cc1OCCCN1CC[C@@H](O)C1)N=C(N)C21CCCC1` [1q (R)], the IC50 result at Spindlin1 (Spin1) is “(R): 470 ± 27”; on His-Spindlin1(49–262) [1], 470 nM.

Regarding `COc1cc2c(cc1OCCCN1CC[C@H](O)C1)N=C(N)C21CCCC1` [1q (S)], the IC50 on His-Spindlin1(49–262) [1] was found to be 478 nM.

`CCC1(C)C(N)=Nc2cc(OCCCN3CCCC3)c(OC)cc21` (stereo not shown) [1r]: the IC50 against Spindlin1 (Spin1) turned out to be 408 nM; on G9a it was 3190 nM; on GLP it was 3.19 µM; at GLP (982–1266), 3.18 µM; against Human G9a (913–1193), 3190 nM; against His-Spindlin1(49–262) [1] it was 408 ± 35 nM.

As to `CCC1(C)C(N)=Nc2cc(OCCCN3Cc4ccccc4C3)c(OC)cc21` (stereo not shown) [1s], the IC50 was 360 nM on Spindlin1 (Spin1); over 20000 nM at G9a; over 20 µM against GLP; over 20 µM on GLP (982–1266); over 20000 nM against Human G9a (913–1193); 360 ± 20 nM at His-Spindlin1(49–262) [1]. Also, the “Spindlin1 inhibitory activity (in words)” value on His-Spindlin1(49–262) [2] is “nanomolar range”.

Consider `CCC1(C)C(N)=Nc2cc(OCCCN3CC[C@@H](C)C3)c(OC)cc21` (stereo partly shown) [1t], for which the IC50 was 467 nM at Spindlin1 (Spin1); over 20000 nM on G9a; over 20 µM on GLP; over 20 µM against GLP (982–1266); over 20000 nM on Human G9a (913–1193); 467 ± 15 nM against His-Spindlin1(49–262) [1]. In addition, the “Spindlin1 inhibitory activity (in words)” value on His-Spindlin1(49–262) [2] was “nanomolar range”.

With `COc1cc2c(cc1OCCCN1CCC(CO)C1)N=C(N)C21CCCC1` (stereo not shown) [1u], the IC50 against Spindlin1 (Spin1) was 1250 nM; at G9a it was over 20000 nM; at GLP, over 20 µM; on GLP (982–1266), over 20 µM; at Human G9a (913–1193) it was over 20000 nM; against His-Spindlin1(49–262) [1], 1250 ± 50 nM.
